Test results from patent US20080305085A1, “Compositions And Methods For Stem Cell Expansion” (priority 2004, published 2008).

Key:
[1] = test system: lin− primitive hematopoietic cells; assay: Apoptosis by AnnexinV / 7-AAD flow cytometry of cells cultured with OPN; type: cell-based, mouse; details: cultured with OPN 1 μg/ml versus without OPN
Procedure: (§1) FIGS. 5A-5C are graphs showing that soluble OPN induces apoptosis of primitive hematopoietic cells. Sca1^+lin^− cells were isolated from the bone marrow of C57B1/6 mice and cultured in IMDM containing 10% fetal calf serum (FCS), stem cell factor (SCF), Flt-3, thrombopoietin (TPO) and IL-3 with or without OPN [1 μg/ml]. After 7 days the cells were counted and analyzed in functional hematopoietic assays.
The fraction of apoptotic cells was next analyzed by staining with lineage markers, 7-AAD and AnnexinV. […] OPN exerted a pro-apoptotic effect on primitive cells potentially constraining the size of the stem cell pool.
Flow cytometry was used to quantify the hematopoietic cells at different stages in the peripheral blood and the bone marrow of the transplanted animals. […] To quantify the enriched stem cell phenotype (Sca1^+lin^−) in primary animals and in transplanted animals bone marrow cells were stained with biotinylated lineage antibodies (CD3, Ter119 (Pharmingen, San Diego, Calif.), CD4, CD8, B220, IgM, Gr-1 and Mac1 (Caltag, Burlingame, Calif.)), c-kit-APC (Pharmingen, San Diego, Calif.) and Sca1-PE (Caltag, Burlingame, Calif.). The cells were analyzed after labeling with the secondary antibody Streptavidin-PerCP (Becton Dickinson, Franklin Lakes, N.J.). […]

[2] = test system: Sca1+lin− bone marrow cells; assay: Culture of Sca1+lin− bone marrow cells with or without soluble OPN for 7 days, cells counted; type: cell-based, mouse; details: Sca1+lin− cells of C57B1/6 mice, 7 days in SCF, Flt-3, TPO, IL-3, OPN 1 μg/ml, versus without OPN
Procedure: as §1
(§2) Exogenous OPN was used to assess its potential role in regulating primitive cells directly rather than through the altered expression of other regulators within the niche. Initial experiments cultured Sca1^+lin^− bone marrow cells of C57B1/6 mice in medium containing stem cell factor (SCF), Flt-3, thrombopoietin (TPO), and IL-3 with and without OPN for 7 days. The cells were subsequently counted and analyzed in functional in vitro progenitor and stem cell assays. Addition of soluble OPN led to a lower total cell number with an unperturbed absolute number of CFCs representing hematopoietic progenitor cell activity (n=5) (FIG. 5A).
(§3) Mouse bone marrow was obtained from 8-12 week old 129/C57BL/6 OPN^+/+ and 129/C57BL/6 OPN^−/− mice, sacrificed with CO2. Bone marrow cell and spleen cell suspensions were flushed from femurs and tibias or take from spleen, filtered through 100 μm-mesh nylon cloth (Sefar America Inc., Kansas City, Mo.), and stored on ice until use. […]

Jagged1 = Jagged1 expression by RT-PCR in wild-type bone marrow stroma exposed to OPN ex vivo; type: cell-based, mouse; details: OPN 1 ug/ml, four hours ex vivo
Excerpt: FIGS. 4A-4F are graphs showing that OPN^−/− bone marrow has unaltered cell cycle profiles associated with increased stromal Jagged1 and Angiopoietin-1 expression and reduced primitive cell apoptosis. FIG. 4A is a graph showing that bone marrow Sca1^+ c-kit^+lin^− cells that show bright staining for Hoechst33342 are cells in the G2/M phase of the cell cycle (n=3 pairs). […] Data are the result of two independent experiments with four mice per group in each experiment. […] Data were normalized to an intrasample GAPDH standard and the results of the OPN^−/− versus OPN^+/+ cells were compared by ratio. […] Data are normalized against GAPDH expression measured by RT PCR. […] AnnexinV-positive/7-AAD-negative apoptotic Sca1^+c-kit^+lin^− cells are shown (n=4 pairs). […] Analyses were performed on the lin^− fraction twelve weeks after transplantation (n=4).
Stem cell expansion may occur without increased proliferation in the context of Notch1 activation where stem cell self renewal is favored over differentiation^23,24. Activation of Notch1 on primitive hematopoietic cells in vivo was previously shown to result in an increase in primitive cells, but reduced progenitor cells similar phenotype to that reported herein^23. […]
The expression of Jagged1, Angiopoietin1 and N-cadherin in bone marrow stroma cells was measured by RT-PCR. […]

[3] = test system: Sca1+lin− bone marrow cells; assay: Limiting dilution LTC-IC assay after 7 day culture with OPN; type: cell-based, mouse; details: after 7 days culture with OPN 1 μg/ml; without OPN 35.9±5.14; P=0.002, n=5
Procedure: as §1
as §2, with “Addition of soluble OPN led to a lower total cell number with an unperturbed absolute number of CFCs representing hematopoietic progenitor cell activity (n=5) (FIG. 5A).” left out
To quantify the stem cells in the bone marrow and spleen cell suspension, the CAFC assay^36 was adapted with minor modifications as described in our previous publication^37. To measure long term culture-initiating cells (LTC-IC) the semisolid, cytokine containing methylcellulose medium for CFC was overlaid into the wells at week 5 and the colonies were counted at day ten. […]

[4] = test system: Sca1+lin− bone marrow cells; assay: Colony-forming cell (CFC) assay after 7 day culture with OPN; type: cell-based, mouse; details: after 7 days culture with OPN 1 μg/ml versus without OPN, n=5
Procedure: as §1, §2, §3

Sca1+c-kit+lin− cells = assay: In vivo PTH treatment, Sca1+c-kit+lin− cells in bone marrow by flow cytometry; parameters: species or system mouse; details: for magnitude of Sca1+c-kit+lin− increase induced by PTH, absolute number / magnitude of Sca1+c-kit+lin− increase induced by PTH, proportion: four weeks of PTH
Procedure: FIG. 6 is a graph showing that OPN deficiency permits increased primitive hematopoietic cell compartment expansion after niche activation by parathyroid hormone (PTH): OPN^+/+ and OPN^−/− mice were treated with PTH by daily injection for 4 weeks. The bone marrow was analyzed by flow cytometry.
Parathyroid hormone is capable of activating niche osteoblasts and expanding the number of stem cells in vitro and in vivo in a Notch mediated manner. […] Stimulation with PTH increases OPN production leading to the hypothesis that the degree of stem cell expansion possible by PTH niche activation may be restricted by OPN. Using the OPN null or wild type mouse, the number of primitive cells was assessed following four weeks of PTH stimulation. A difference in the number of Sca1^+c-kit^+lin^− was noted between the OPN null and wild type mouse prior to PTH (FIG. 6). With PTH treatment, there was an increase in the Sca1^+c-kit^+lin^− cells in each genotypic background.
6-8 week old wild-type or null male mice were injected with rat PTH (1-34) (Bachem, Torrance, Calif.) (80 μg/Kg of body weight) or vehicle alone intraperitoneally 5×/week for 4 weeks (n=4-6/group). Animals were sacrificed and bone marrow cell isolated and analyzed as above.
Flow cytometry was used to quantify the hematopoietic cells at different stages in the peripheral blood and the bone marrow of the transplanted animals. Bone marrow nucleated cells were labeled with the leukocyte antibodies Ly5.1-PE and Ly5.2-biotin (Pharmingen, San Diego, Calif.), lineage antibodies (CD3-PerCP, CD4-PE, B220-PE, Ter119-PE, (Pharmingen, San Diego, Calif.), CD8-Tri, Gr-1-Tri, Mac1-PE (Caltag)), and stem cell markers (Sca1-Tri and PE, c-kit-Tri (Caltag, Burlingame, Calif.)). To quantify the enriched stem cell phenotype (Sca1^+lin^−) in primary animals and in transplanted animals bone marrow cells were stained with biotinylated lineage antibodies (CD3, Ter119 (Pharmingen, San Diego, Calif.), CD4, CD8, B220, IgM, Gr-1 and Mac1 (Caltag, Burlingame, Calif.)), c-kit-APC (Pharmingen, San Diego, Calif.) and Sca1-PE (Caltag, Burlingame, Calif.). The cells were analyzed after labeling with the secondary antibody Streptavidin-PerCP (Becton Dickinson, Franklin Lakes, N.J.). For cell cycle analyses bone marrow cells were incubated with stem cell markers and the DNA dye Hoechst33342. The proportion of apoptotic cells were measured by staining with AnnexinV (Caltag, Burlingame, Calif.) and the DNA-dye 7-AAD (Sigma, St. Louis, Mo.).

Substance	percentage of AnnexinV+7-AAD− cells in the lin− cell population [1]	total cell number [2]	Jagged1 expression (RT-PCR, normalized to GAPDH) (Jagged1)	absolute number of LTC-ICs [3]	absolute number of CFCs [4]	Sca1+c-kit+lin− cells after PTH treatment (Sca1+c-kit+lin− cells; OPN null and wild type mice, 80 μg/Kg i.p. 5×/week for 4 weeks)	magnitude of Sca1+c-kit+lin− increase induced by PTH, absolute number (Sca1+c-kit+lin− cells; OPN null mice)	magnitude of Sca1+c-kit+lin− increase induced by PTH, proportion (Sca1+c-kit+lin− cells; OPN null mice)	magnitude of Sca1+c-kit+lin− increase induced by PTH, absolute number (Sca1+c-kit+lin− cells; wild type mice)	magnitude of Sca1+c-kit+lin− increase induced by PTH, proportion (Sca1+c-kit+lin− cells; wild type mice)
OPN: Osteopontin, a secreted, highly acidic glycoprotein; OPN protein was obtained from R&D Systems	higher percentage	lower	statistically significantly reduced	16.41±4.5 LTC-ICs/well	unperturbed	–	–	–	–	–
PTH: rat PTH (1-34) (Bachem), parathyroid hormone used to activate niche osteoblasts (AVSEIQLMHNLGKHLASVERMQWLRKKLQDVHNF; Parathyroid hormone; UniProt P04089 32-65, looked up, fragment)	–	–	–	–	–	increase	5.94×10^4 stem cells per femur pair	10.0%	3.82×10^4 stem cells per femur pair	7.5%
